Measured values taken from patent US8673870B2 (priority 2002, dated 2014).
Values joined by “and” are separate entries in the source; they are usually repeats but may differ in a detail not shown here. Equal values may be shown once.

What was measured:
[1] = tested on: spleen cells stimulated with irradiated APL cells; experiment: Cytokine release assay (Th1/Th2 cytometric bead array); assay type: cell-based, mice
Protocol: Long term survivors (post day 300 illustrated in FIG. 2B) were sacrificed and tested for proliferation and cytokine release. Briefly, 5×10^5 responders (spleen cells from FVB/N injected with APL cells and treated with ATRA+PML-RARα-FrC or ScFvBCL1-FrC) were plated in each well with 200 μl of media consisting of RPMI 1640, 10% FCS and 0.5% […]. Spleen cells from healthy mice treated with ATRA. Stimulators (spleen cells from FVB/N, APL or BALB/c) were irradiated with 25 Gy and 1×10^6 cells were added to each well. After 24, 48 and 72 hours of incubation cells were assayed for ^3H-thymidine incorporation and supernatants were harvested for cytokine release assays. Cultures were set up in duplicate.
Cytokine release was measured using a mouse Th1/Th2 cytokine cytometric bead array kit according to the manufacturer's protocols (Becton, Dickinson, Pharmingen, San Jose, Calif.). This kit measures cytokines IL-2, IL-4, IL-5, IFN-γ and TNF-α. Long-term survivors of the mice from the protocol illustrated in FIG. 8, were sacrificed and spleen cells were cultured as described above. Briefly, 50 μl of supernatant was incubated with 50 μl of the mixed capture beads and 50 μl of the mouse Th1/Th2 PE detection reagent for 2 hours and analyzed on a FACSCalibur cytometer. Analysis was undertaken using the BD CBA (Becton Dickinson, Pharmingen) and Cell Quest software.

fragment C = conditions: in vivo
[2] = tested on: Recombinant human RARα protein (rhRARα); parameters: species or system mice; conditions: in vivo
APL cells = tested on: APL cells; parameters: species or system mice; conditions: mouse, in vivo

| Compound | IFN-γ release ([1]; 48 hours of culture, irradiated APL cells as stimulators, ATRA alone = spleen cells from healthy mice) [pg/mL] | Antibody response to fragment C (mice responding/mice tested) (fragment C) | Antibodies against RARα detected by ELISA, in words [2] | RARα Ab positive (%) [2] | RARα Ab positive: mice with detectable antibodies/mice alive [2] | Survival versus comparison arms (Kaplan Meier), in words (APL cells) | Survival: No. mice/total (APL cells) | Time to relapse and death post transplant (APL cells; sc) | TNFα ([1]; with ATRA, approximately one year from injection of APL cells) | Lifespan, in words (APL cells) |
| --- | --- | --- | --- | --- | --- | --- | --- | --- | --- | --- |
| CC1=C(/C=C/C(C)=C/C=C/C(C)=C/C(=O)O)C(C)(C)CCC1 [ATRA, all-trans retinoic acid] | 52 | no antibodies to fragment C was detected | Significant levels of antibodies against RARα were detected | 7/12 (58%) and 4/5 (80%) | 0/12 and 7/12 (58%) and 4/5 (80%) | all of the mice relapse and die | 24/24 (100%) and 5/24 (21%) and 0/24 (0%) | 6-12 weeks | – | – |
| ScFvBCL1-FrC: ScFv construct of King et al 1998 from a lymphoma patient fused in frame to BCL1 leader and fragment C (SEQ ID NO:11) | – | – | – | – | – | – | – | – | increases in TNFα | extended lifespan |
